Two molecules from patent publication US12252524B2, “GIP/GLP1 co-agonist compounds” (Eli Lilly and Company, priority 2018, dated 2025) can be followed below.

Data set [1] concerns CD8+ T cell depleted peripheral blood mononuclear cells. In words: CD4+ T cell assay for potential clinical immunogenicity. The following applies: for frequency of positive CD+ T cell response (CDI>2.5): CD4+ T cell assay.
The conditions of data set [2]: single intrajejunal 1 μmol/kg with 250 mM C10 and 12 mg/mL SBTI, male Sprague Dawley rats; for Cmax/D: mean (SD).
Procedure: (§1) The pharmacokinetics of select Examples are evaluated following a single subcutaneous (SC) administration of 50 nMol/kg (dissolved in PBS, pH 7.4) or single 1 μmol/kg (mixed with 250 mM sodium decanoate (“C10”) and 12 mg/mL soybean trypsin inhibitor (SBTI)) intrajejunal (IJ) administration to male Sprague Dawley rats. […] Pharmacokinetic parameters are calculated using individual plasma concentrations. A qualified LC/MS method that measures the intact mass of the Example is used to determine plasma (K3 EDTA) concentrations. Each Example is tested with an analog peptide as an internal standard. Immunoaffinity based precipitation with anti-GIP/GLP1 antibodies is used to extract each test peptide and analog.
A further data set concerns the target T1, human GIP receptor (Homo sapiens, UniProt P48546).
T1 construct: expressed in transfected cells; crude membranes
T1 sequence (P48546 22-466): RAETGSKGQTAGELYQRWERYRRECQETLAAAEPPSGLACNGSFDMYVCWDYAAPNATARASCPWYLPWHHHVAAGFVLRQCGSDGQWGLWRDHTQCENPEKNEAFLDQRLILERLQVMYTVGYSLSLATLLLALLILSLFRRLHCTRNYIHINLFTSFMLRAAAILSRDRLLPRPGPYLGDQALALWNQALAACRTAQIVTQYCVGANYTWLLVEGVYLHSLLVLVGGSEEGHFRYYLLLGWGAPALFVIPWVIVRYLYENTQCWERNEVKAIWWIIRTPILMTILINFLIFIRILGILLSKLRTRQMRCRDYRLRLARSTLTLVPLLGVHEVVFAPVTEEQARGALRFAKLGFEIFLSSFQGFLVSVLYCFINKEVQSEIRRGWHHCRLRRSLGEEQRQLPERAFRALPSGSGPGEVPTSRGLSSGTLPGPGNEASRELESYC
As to the kind of experiment: [125I]-GIP binding (SPA), human GIP receptor.

The nature of data set [3]: in vivo. The following applies: male, Sprague Dawley, rat, plasma, sc, 50 nmol/kg.
Procedure: as §1
For the next data set, the target named is human GLP-1R (Homo sapiens, UniProt P43220). As to the kind of experiment: [125I]-GLP-1 binding (SPA), human GLP-1 receptor. Details: expressed in transfected cells; crude membranes. In short, it runs like this:
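Membranes: hypotonic lysis (50 mM Tris HCl, pH 7.5, protease inhibitors), Potter-Elvehjem homogenization, high-speed pellet (35000×g 1 h or 25000×g 30 min, 4° C.). Buffer: 25 mM HEPES pH 7.4, 2.5 mM CaCl2, 1 mM MgCl2. Four-parameter IC50 fit; Ki as geometric mean ± SEM.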

A short description of data set [4]: in vivo. The following applies: male, Sprague Dawley, rat, plasma, other: intrajejunal, 1 umol/kg.
Procedure: as §1
For data set [5] the following is noted: single subcutaneous 200 nMol/kg, male CD-1 mice.
Procedure: The pharmacokinetics of select Examples are evaluated following a single subcutaneous administration of 200 nMol/kg to male CD-1 mice. […] Plasma (K3 EDTA) concentrations are determined using a qualified LC/MS method that measures the intact mass of the Examples. […] Instruments are combined for LC/MS detection.
Data set [6] has as its target human GLP-1 receptor (GLP-1R) (Homo sapiens, UniProt P43220). In words: cAMP pharmacological functional assay in presence of casein, hGLP-1R. It counts as cell-based.
For data set [7] the following is noted: single subcutaneous 50 nMol/kg, male Sprague Dawley rats; mean (SD).
Procedure: as §1
Setting [8] is: Examples 10 uM, KLH 0.33 μM, 7 days.

Read-outs that look alike come from different tables or passages of the source. Numbered stars: 1 amine (or outer) side, 2 acyl side, 3 side chain; on linkers, the order of the positions; unused ones are H or OH. Square brackets hold non-standard residues; d marks the D form. Side chains are listed from the residue outwards. Peptide text beside a SMILES is read from it. * marks the point of attachment. C18 diacid = O=C(O)CCCCCCCCCCCCCCCCC(=O)*; αMePhe(2-F) = C[C@](N)(Cc1ccccc1F)C(=O)O; γGlu = O=C(O)[C@H](CCC(=O)[*:2])N[*:1]; αMeL = CC(C)C[C@](C)(N)C(=O)O; Orn = NCCC[C@H](N)C(=O)O; AEEA = NCCOCCOCC(=O)O; Aib = CC(C)(N)C(=O)O

human GLP-1R, sequence (P43220 24-463): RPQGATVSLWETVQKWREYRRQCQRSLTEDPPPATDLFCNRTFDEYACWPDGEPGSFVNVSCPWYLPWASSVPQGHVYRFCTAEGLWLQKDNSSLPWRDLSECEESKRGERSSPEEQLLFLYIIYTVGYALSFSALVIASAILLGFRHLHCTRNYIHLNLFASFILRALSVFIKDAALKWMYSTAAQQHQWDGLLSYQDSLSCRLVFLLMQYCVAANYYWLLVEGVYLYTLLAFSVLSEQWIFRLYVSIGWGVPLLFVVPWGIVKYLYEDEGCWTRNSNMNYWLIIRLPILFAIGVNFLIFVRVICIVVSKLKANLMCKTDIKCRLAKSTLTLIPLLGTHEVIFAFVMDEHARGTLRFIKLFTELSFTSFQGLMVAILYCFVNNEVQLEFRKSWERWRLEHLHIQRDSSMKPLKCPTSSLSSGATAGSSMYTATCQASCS
human GLP-1 receptor (GLP-1R), sequence (P43220 24-463): as above

One may read the Ki as the equilibrium dissociation constant of an inhibitor or competing ligand from its target. A low value points to a stronger hold on the target. One may read the CL/F as the apparent clearance, not corrected for the fraction that reaches the circulation. As usually defined, the Tmax is the time at which the peak concentration occurs. What is called half-life is the time needed for the level to fall by half in the phase considered. A higher half-life goes with slow decline. As a reminder, the EC50 is the concentration giving half of the maximal effect. As to `CC[C@H](C)[C@H](NC(=O)[C@H](CC(C)C)NC(=O)[C@H](Cc1ccc(O)cc1)NC(=O)[C@@H](CCC(=O)O)NC(=O)[C@@H](NC(=O)[C@H](Cc1ccccc1)NC(=O)[C@H](CCC(=O)O)NC(=O)C(C)(C)NC(=O)[C@H](CCC(N)=O)NC(=O)[C@H](C)NC(=O)[C@H](CCCCNC(=O)COCCOCCNC(=O)COCCOCCNC(=O)CC[C@H](NC(=O)CCCCCCCCCCCCCCCCC(=O)O)C(=O)O)NC(=O)[C@H](CCCN)NC(=O)[C@H](CC(=O)O)NC(=O)[C@H](CC(C)C)NC(=O)[C@](C)(CC(C)C)NC(=O)[C@@H](NC(=O)[C@H](CO)NC(=O)[C@H](Cc1ccc(O)cc1)NC(=O)[C@H](CC(=O)O)NC(=O)[C@H](CO)NC(=O)[C@@H](NC(=O)[C@](C)(Cc1ccccc1F)NC(=O)[C@@H](NC(=O)CNC(=O)[C@H](CCC(=O)O)NC(=O)C(C)(C)NC(=O)[C@@H](N)Cc1ccc(O)cc1)[C@@H](C)O)[C@@H](C)O)[C@@H](C)CC)[C@@H](C)CC)C(=O)N[C@@H](CCC(=O)O)C(=O)NCC(=O)NCC(=O)N1CCC[C@H]1C(=O)N[C@@H](CO)C(=O)N[C@@H](CO)C(=O)NCC(=O)N[C@@H](C)C(=O)N1CCC[C@H]1C(=O)N1CCC[C@H]1C(=O)N1CCC[C@H]1C(=O)N[C@@H](CO)C(N)=O` [Example 2] (H-Y[Aib]EGT[αMePhe(2-F)]TSDYSI[αMeL]LD[Orn]K([AEEA-AEEA-γGlu-C18 diacid])AQ[Aib]EFI[dE]YLIEGGPSSGAPPPS-NH2; N-terminus assumed), the “frequency of positive CD+ T cell response (CDI>2.5)” value in data set [1] is “low”. In [1] (setting [8]), the “% Donor Response (CD4+ T cell response)” value was 22% and the “Median Response Strength in positive donors (CDI)” value was found to be 3.68 CDI. Also, in data set [2], the AUCINF_D_obs amounted to 6.6 hr*kg*nmol/L/nmol and the Cmax/D is recorded as 0.56 (0.40) kg*nmol/L/nmol. Further, on human GIP receptor, affinity was put at a Ki of 0.06 nM. Moreover, in the data set “in vivo [3]”, the CL/F was 4.32 mL/h/kg, the Tmax was 14.7 h and the half-life is 20.3 h. In addition, on human GLP-1R, affinity was put at a Ki of 2.35 nM. For the same molecule, in “in vivo [4]”, the Tmax was determined as 0.25 h. In data set [5], this molecule showed an AUCINF_D_obs of 77.23 hr*kg*nmol/L/nmol and a Cmax/D of 5.4 kg*nmol/L/nmol. Besides, the EC50 in data set [6] stood at 0.0441 nM. In [7], the AUCINF_D_obs is listed as 231.7 (9.6) hr*kg*nmol/L/nmol and the Cmax/D is given as 5.19 (0.20) kg*nmol/L/nmol.
For `CC[C@H](C)[C@H](NC(=O)[C@H](CC(C)C)NC(=O)[C@H](Cc1ccc(O)cc1)NC(=O)[C@@H](CCC(=O)O)NC(=O)[C@@H](NC(=O)[C@H](Cc1ccccc1)NC(=O)[C@H](CCC(=O)O)NC(=O)C(C)(C)NC(=O)[C@H](CCC(N)=O)NC(=O)[C@H](C)NC(=O)[C@H](CCCCNC(=O)COCCOCCNC(=O)COCCOCCNC(=O)CC[C@H](NC(=O)CCCCCCCCCCCCCCCCCCC(=O)O)C(=O)O)NC(=O)[C@H](CCCN)NC(=O)[C@H](CC(=O)O)NC(=O)[C@H](CC(C)C)NC(=O)[C@](C)(CC(C)C)NC(=O)[C@@H](NC(=O)[C@H](CO)NC(=O)[C@H](Cc1ccc(O)cc1)NC(=O)[C@H](CC(=O)O)NC(=O)[C@H](CO)NC(=O)[C@@H](NC(=O)[C@](C)(Cc1ccccc1F)NC(=O)[C@@H](NC(=O)CNC(=O)[C@H](CCC(=O)O)NC(=O)C(C)(C)NC(=O)[C@@H](N)Cc1ccc(O)cc1)[C@@H](C)O)[C@@H](C)O)[C@@H](C)CC)[C@@H](C)CC)C(=O)N[C@@H](CCC(=O)O)C(=O)NCC(=O)NCC(=O)N1CCC[C@H]1C(=O)N[C@@H](CO)C(=O)N[C@@H](CO)C(=O)NCC(=O)N[C@@H](C)C(=O)N1CCC[C@H]1C(=O)N1CCC[C@H]1C(=O)N1CCC[C@H]1C(=O)N[C@@H](CO)C(N)=O` [Example 3], the “frequency of positive CD+ T cell response (CDI>2.5)” value in data set [1] was “low”. Moreover, the “% Donor Response (CD4+ T cell response)” value in data set [1] (setting [8]) is on record as 0%. The AUCINF_D_obs in data set [2] is listed as 8.45 hr*kg*nmol/L/nmol; in data set [5] it was 158.49 hr*kg*nmol/L/nmol; in data set [7], 371.8 (21.8) hr*kg*nmol/L/nmol. Also, the Cmax/D in [2] is 0.47 (0.16) kg*nmol/L/nmol; in data set [5], 4.42 kg*nmol/L/nmol; in data set [7], 4.71 (0.50) kg*nmol/L/nmol. Further, the Ki at human GIP receptor was 0.0458 nM; at human GLP-1R, 2.23 nM. Also, the apparent clearance (CL/F) in “in vivo [3]” was 2.7 mL/h/kg. Besides, the values for the Tmax in the data set “in vivo [3]” and in the data set “in vivo [4]” were 21.3 h and 0.33 h, respectively. In “in vivo [3]”, this molecule showed a half-life of 32.1 h. For the same molecule, the EC50 in data set [6] amounted to 0.0338 nM.
